From the METLIN SMRT retention time set (Domingo-Almenara et al. 2019)

Assay: gradient 5% acetonitrile 3 min, to 50% in 2 min, to 85% in 15 min, held 3 min, 100 µL/min
Settings: column: Zorbax Extend-C18 2.1 x 50 mm; eluents: water / acetonitrile, 0.1% formic acid
Summary of the method: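 Over 3 months, pure standards in mixtures of ~100 molecules were run by HPLC coupled to a quadrupole time-of-flight mass spectrometer in positive and negative ionization mode. The column was a Zorbax Extend-C18 (2.1 × 50 mm, 1.8 μm) at 100 μL/min, eluted with water and acetonitrile each holding 0.1% formic acid, with 40 μL dead and 900 μL dwell volumes. Retention time was determined from adduct peaks chosen by software and checked manually.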

Compound | RP-LC retention time [s]
CCCNC(=O)N1CCC(N2CCN(Cc3cccc(F)c3)C(=O)C2=O)CC1 | 651
Cc1ccc(C)c(NC(=O)N2CCC(N3CCN(Cc4cccc(F)c4)C(=O)C3=O)CC2)c1 | 767
Fc1cccc(-c2nc(-c3cn(Cc4ccccc4)nn3)no2)c1 | 1020
CCOC(=O)c1c(C)n(C)c2ccc(OCC(O)CN3CCCCC3)cc12 (centres undefined) | 643
CCN(C(=O)c1cc2c(s1)N(CC1CC1)CCCC2)C(C)C | 1260
Cc1nc(-c2ccc(C)c(S(=O)(=O)NCCN(C)C)c2)cs1 | 612
O=C1CC(c2noc(-c3ccc(F)cc3)n2)CN1c1ccc(F)cc1 (centres undefined) | 961
CCC(C)NC(=O)N1CCN(c2cc(-c3cc(F)ccc3OC)ncn2)CC1 (centres undefined) | 636
COc1cccc(OC)c1C(=O)N1CCCC1c1c(C)noc1C (centres undefined) | 665
Cc1cccc(-c2nc(Cn3nnc(C(=O)NCc4ccc(C(C)C)cc4)c3C)c(C)o2)c1 | 1310
CCCCOc1ccc(-c2ccc(=O)n(Cc3nc(-c4ccc(F)cc4)no3)n2)cc1 | 1290
CN1c2ccc(F)cc2C(=O)NC12CCN(C(=O)Cc1ccccc1Cl)CC2 | 774
CCc1nc2cc(N3CCCC(C(=O)NCC(C)C)C3)cnc2nc1CC (centres undefined) | 790
Cc1ccn2c(NC(=O)CC(C)(C)C)c(-c3ccc(F)cc3)nc2c1 | 669
COc1ccc(/C=C2/CCOC2=O)cc1 | 833
COc1ccc(CN2CCc3nc(N4CCCC4)ncc3C2)c(OC)c1 | 619
COc1ccc(C(=O)NC2CCN(c3cc(-c4ccc(OC)cc4)[nH]n3)C2)cc1 (centres undefined) | 706
CC1=C(C(=O)N2CCOCC2)C(c2ccc(Cl)cc2)C2=C(CC(C)(C)CC2=O)N1 (centres undefined) | 710
Cc1ccc(NC(=O)C2CC(=O)N(c3n[nH]c4cccc(F)c34)C2)cc1C (centres undefined) | 831
CCOc1cc(-c2ccc(F)cc2)nc2ccc(NS(=O)(=O)c3ccc(C#N)cc3)cc12 | 801
COC(=O)c1c(-c2ccc(C)cc2)csc1NC(=O)C1CCN(C(C)=O)CC1 | 932
Cc1ccc(CNC(=O)N2CC(Oc3ccc(-c4nc(C)no4)cc3)C2)cc1 | 861
Cc1noc(-c2cccn2Cc2ccccc2F)n1 | 1050
CC1CCN(CCCNC(=O)C2CCN(S(=O)(=O)c3ccc4c(c3)sc(=O)n4C)CC2)CC1 | 1060
Cc1ccc(NS(=O)(=O)c2cc(-c3[nH]ncc3C(=O)N(C)C)oc2C)c(F)c1 | 678
CCOc1ccc(C(=O)N2CCC3(CC2)NC(=O)c2cc(Cl)ccc2N3C)cc1 | 853
Nc1c(C(=O)NCC2CC2)nsc1C(=O)O | 770

Compound | RP-LC retention time [s]
CCS(=O)(=O)N1CCC(c2noc(COCCOC)n2)CC1 | 681
COc1ccc(Nc2c(C(=O)N3CCC(C)CC3)cnc3nc(C)ccc23)cc1 | 638
Cc1ccc(C)c(N2CCN(c3ncc(S(=O)(=O)c4ccc(Cl)cc4)c(N)n3)CC2)c1 | 1380
COC(=O)CNC(=O)Cc1c(C)nn(-c2nc(-c3ccc(C)cc3)cs2)c1C | 963
COc1ccc(NC(=O)C2CCCCC2)c2ccccc12 | 861
O=c1ccc(-c2ccc3c(c2)OCO3)nn1CCc1nc(-c2ccc(F)c(Br)c2)no1 | 1030
CCOc1cc(-c2noc(-c3nnn4c3COC(c3ccc(F)cc3)C4)n2)ccc1OC (centres undefined) | 1130
CCOc1ccc(-c2noc(N3CCC(C(=O)Nc4cc(Cl)ccc4OC)CC3)n2)cc1OC | 1090
CN(C)c1ncncc1N1CCC(C(=O)NCc2ccc3c(c2)OCO3)CC1 | 587
CCOc1ccc(NC(=O)Cc2nnc(-c3ccc4ncccc4c3)o2)cc1 | 718
COc1ccc2c(c1)N(CC(C)CN(C)C)c1ccccc1S2 (centres undefined) | 804
O=C(c1ccc(OC(F)(F)F)cc1)N1CCN(CCn2cccn2)CC1 | 582
Cc1nc(-c2csc(S(=O)(=O)N3CCC(C(=O)Nc4ccc(F)cc4Cl)CC3)c2)no1 | 1010
CS(=O)(=O)N1CCN(C(=O)c2nn(CC3CC3)c3c2CNCC3)CC1 | 558
COc1ccccc1CNS(=O)(=O)c1cc2n(c1)CCN(C(C)C)C2=O | 784
Cc1nc(-c2csc(S(=O)(=O)NCc3ccc(F)cc3Cl)c2)sc1C | 1070
CCNC(=O)c1n[nH]c2c1CN(C(=O)c1ccc3c(c1)OCO3)CC2 | 634
CCOC(=O)c1[nH]c(C)c(CCC(=O)NCCN2CCCCCC2)c1C | 616
COc1ccc(OC)c(C(O)CN2CCC(c3nc(C)no3)CC2)c1 (centres undefined) | 574
CCC(=O)N1c2ccccc2NC2=C(C(=O)CC(C)(C)C2)C1c1ccc(C#N)cc1 (centres undefined) | 797
Cc1ccc(Nc2nc(C)cc3nn(CC(=O)Nc4ccc(N(C)C)cc4)c(=O)n23)cc1 | 800
CCc1cc(C(=O)Nc2ccc(C)c(C)c2)nc2ccnn12 | 1150
CCC(=O)N1CCC(Oc2nccnc2N2CCOCC2)C1 (centres undefined) | 646
CC(NC(=O)c1ccc(N(C)C)cc1)C(=O)N1CCCc2ccccc21 (centres undefined) | 846
CC(=O)N1CCC(C(=O)N2CCC3(CC2)NCc2ccccc2-n2ccnc23)CC1 | 564
COCc1noc([C@@H]2CN(C(=O)c3ccc(Cl)s3)C[C@H]2C(N)=O)n1 | 676

Continued, values first:

RP-LC retention time [s] | Compound
855 | O=C(NCCc1ccc(Cl)cc1)C1CCCN(c2ncnc3c2oc2ccccc23)C1 (centres undefined)
570 | CCN(CC)c1nc(C(=O)N2CCN(c3ccccn3)CC2)nc2nc(C)cc(C)c12
1130 | CCn1c(=O)n(CC(=O)NCCC2=CCCCC2)c(=O)c2cnc(-c3ccccc3)nc21
1010 | Cc1ccc(C)c(Sc2ccc(N3CCC(C(=O)NCCC4=CCCCC4)CC3)nn2)c1
995 | Cc1cc(NC(=O)Cn2nc(N(C)C)c3ccccc3c2=O)ccc1Br
825 | CC(C)N1C(=O)Cc2ccccc2C1C(=O)NCc1ccccc1Br (centres undefined)
813 | COc1ccc2[nH]cc(CCNC(=O)C(C)n3c4ccccc4c4cnn(C)c(=O)c43)c2c1 (centres undefined)
936 | Cc1cc(C(=O)NCc2ccco2)c2cccc(-c3ccccc3)c2n1
967 | Cc1ccc(C)c(NC(=O)N2CCCC(C)(C(=O)NCc3ccccc3)C2)c1 (centres undefined)
1080 | Cc1ccc(-c2noc(-c3nn(CC(=O)N4CCCC4)c4ccccc34)n2)cc1
1200 | CCOC(=O)c1cc(C2CC2)nc2c1c(=O)n(Cc1ccc(F)cc1)c(=O)n2C
925 | CC(CCc1ccccc1)NC(=O)C(=O)NC1CCCC1 (centres undefined)
733 | CCSc1nnc(NC(=O)CSc2ncnc3ccccc23)s1
702 | CCCNc1nc(-c2ccccc2Cl)nc2ccccc12
933 | CCCS(=O)(=O)N1CCC(c2noc(-c3ccccc3)n2)C1 (centres undefined)
740 | CC(C)Cn1c(=O)c(N2CCN(S(=O)(=O)Cc3ccccc3)CC2)nc2ccncc21
955 | CC1CCN(c2nc(-c3ccc(Br)cc3)nc3ccccc23)CC1
851 | O=c1ccn(-c2cccc(F)c2)nc1-c1nc(-c2ccccc2)no1

RP-LC retention time [s] | Compound
1080 | C=CCn1c(=O)c2ccccc2n(Cc2nc(-c3ccccc3C)no2)c1=O
952 | Cc1cc(-c2nnc(-c3ccccc3)o2)c(C)n1CC(=O)Nc1ccccc1F
961 | CC(C)OCCCNC(=O)CN1c2ccc(Br)cc2-c2ccccc2S1(=O)=O
987 | Cc1ccc(-n2c(N3CCCC(C(=O)NCCCc4ccccc4)C3)nc3ccsc3c2=O)cc1 (centres undefined)
968 | Cc1ccc2ncn(C3CCN(S(=O)(=O)c4ccc(C)c(F)c4)CC3)c(=O)c2c1
734 | CCOc1nn(CC)cc1-c1nnc(SCC(=O)N2CCCc3ccccc32)n1CC
809 | COc1ccc(-c2noc(C3CCCN3C(=O)c3ccco3)n2)cc1 (centres undefined)
821 | O=C(c1cccs1)N1CCC2(CC1)NC(=O)N(Cc1ccccc1Cl)C2=O
831 | Cc1nc2cccnc2n1CC1CCCN(S(=O)(=O)c2ccc3c(c2)CCCC3)C1 (centres undefined)
562 | CCC(=O)N1CCCn2nc(-c3cccnc3)cc2C1
651 | CCOc1ccccc1N1CCN(Cc2nc(-c3ccc(N4CCCC4)nc3)no2)CC1
868 | CCc1ccc(NC(=O)C2CCCN2S(=O)(=O)c2cc3c(cc2Cl)NC(=O)CO3)cc1 (centres undefined)
645 | O=C(CCc1c(-c2ccc(F)cc2)nc2ccccn12)NCc1cccc(F)c1
706 | Cc1ccc2c(c1)N(CCCC(=O)N1CCN(Cc3cn(C)c4ccccc34)CC1)C(=O)CO2
917 | CCC1Oc2ccc(S(=O)(=O)N3CCC(C(=O)N4CCc5ccccc54)CC3)cc2NC1=O (centres undefined)
1090 | CCc1cccc(NC(=O)C2CCCN(S(=O)(=O)c3cc(-c4noc(CC)n4)cs3)C2)c1 (centres undefined)
550 | CCCNc1cc(N2CCCC(CCC(=O)NCc3ccccn3)C2)ncn1 (centres undefined)
1010 | CC(Oc1ccccc1F)C(=O)Nc1nc(-c2ccc(S(=O)(=O)N3CCOCC3)cc2)cs1 (centres undefined)
